Read-outs that look alike come from different tables or passages of the source.
Tests used:
[1] = test system: DU-145; test: Inhibition of cells growth by colorimetric assay (SRB); details: Homo sapiens, DU-145, 48 h
Outline: (§1)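 Colorimetric SRB read (490 nm) on triplicate wells after 48 h at 37 °C, 5% CO2. Dose range 10 to 10^−8 μg/ml; 5×10^3 cells/well pre-attached 18 h.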

[2] = test system: LoVo-Dox; test: as above; details: Homo sapiens, 48 h; for GI50: read-out: LOVO-DOX GI50; for CC50: read-out: LOVO-DOX LC50; for IC (TGI): read-out: LOVO-DOX TGI
Outline: as §1

[3] = test system: LNCaP; test: as above; details: Homo sapiens, LNCaP, 48 h
Outline: as §1

[4] = test system: PANC-1; test: as above; details: Homo sapiens, PANC-1, 48 h; for GI50: read-out: PANC-1 GI50; for CC50: read-out: PANC-1 LC50; for IC (TGI): read-out: PANC-1 TGI
Outline: as §1

[5] = test system: K-562; test: as above; details: Homo sapiens, K562, 48 h; for GI50: read-out: K562 GI50; for CC50: read-out: K562 LC50; for IC (TGI): read-out: K562 TGI
Outline: as §1

[6] = test system: HeLa; test: as above; details: Homo sapiens, HeLa, 48 h; for GI50: read-out: HELA GI50; for CC50: read-out: HELA LC50; for IC (TGI): read-out: HELA TGI
Outline: as §1

[7] = test system: HeLa-APL; test: as above; details: Homo sapiens, 48 h; for GI50: read-out: HELA-APL GI50; for CC50: read-out: HELA-APL LC50; for IC (TGI): read-out: HELA-APL TGI
Outline: as §1

[8] = test system: SK-BR-3; test: as above; details: Homo sapiens, SK-BR-3, 48 h; for GI50: read-out: SK-BR3 GI50; for CC50: read-out: SK-BR3 LC50; for IC (TGI): read-out: SK-BR3 TGI
Outline: as §1

[9] = test system: IGROV-1; test: as above; details: Homo sapiens, IGROV-1, 48 h; for GI50: read-out: IGROV GI50; for CC50: read-out: IGROV LC50; for IC (TGI): read-out: IGROV TGI
Outline: as §1

[10] = test system: IGROV-ET; test: as above; details: Homo sapiens, 48 h; for GI50: read-out: IGROV-ET GI50; for CC50: read-out: IGROV-ET LC50; for IC (TGI): read-out: IGROV-ET TGI
Outline: as §1

[11] = test system: SK-MEL-28; test: as above; details: Homo sapiens, SK-MEL-28, 48 h
Outline: as §1

[12] = test system: A-549; test: cells; details: Homo sapiens, A549, 48 h
Outline: as §1

[13] = test system: HT-29; test: cells; details: Homo sapiens, HT-29, 48 h
Outline: as §1

[14] = test system: LoVo; test: cells; details: Homo sapiens, LoVo, 48 h; for GI50: read-out: LOVO GI50; for CC50: read-out: LOVO LC50; for IC (TGI): read-out: LOVO TGI
Outline: as §1

`COc1c(C)cc2c(c1OC(=O)/C=C/c1ccccc1)[C@H]1N[C@@H](C2)[C@H](C#N)N2C1[C@@H]1SCC(NC(=O)C(F)(F)F)C(=O)OC[C@H]2c2c3c(c(C)c(OC(C)=O)c21)OCO3` (stereo partly drawn) [compound 34] gave a GI50 ([1]; read-out: GI50 DU145) of 0.0511 µM, a CC50 ([1]; read-out: LC50 DU145) of 0.0537 µM and an IC (TGI) ([1]; read-out: TGI DU145) of 0.0987 µM. The GI50 [2] was 0.14 µM, the CC50 [2] was 12 µM and the IC (TGI) [2] was 0.41 µM. The GI50 ([3]; read-out: GI50 LNCAP) was 0.022 µM, the CC50 ([3]; read-out: LC50 LNCAP) was 0.147 µM and the IC (TGI) ([3]; read-out: TGI LNCAP) was 0.0521 µM. For the same compound, the GI50 [4] was 0.0511 µM, the CC50 [4] was 0.841 µM and the IC (TGI) [4] was 0.123 µM. The GI50 [5] was 0.0162 µM, the CC50 [5] was 0.146 µM and the IC (TGI) [5] was 0.045 µM. For the same compound, the GI50 [6] was 0.0335 µM, the CC50 [6] was 0.116 µM and the IC (TGI) [6] was 0.0624 µM. It also gave a GI50 [7] of 0.0339 µM, a CC50 [7] of 0.108 µM and an IC (TGI) [7] of 0.0605 µM. The GI50 [8] was 0.0127 µM, the CC50 [8] was 0.626 µM and the IC (TGI) [8] was 0.0701 µM. It also gave a GI50 [9] of 0.0292 µM, a CC50 [9] of 0.117 µM and an IC (TGI) [9] of 0.0583 µM. The GI50 [10] was 0.0895 µM, the CC50 [10] was 0.86 µM and the IC (TGI) [10] was 0.262 µM. It also gave a GI50 ([11]; read-out: GI50 MEL-28) of 0.0327 µM, a CC50 ([11]; read-out: LC50 MEL-28) of 0.111 µM and an IC (TGI) ([11]; read-out: TGI MEL-28) of 0.0603 µM. The GI50 ([12]; read-out: GI50 A549) was 0.0553 µM, the CC50 ([12]; read-out: LC50 A549) was 0.611 µM and the IC (TGI) ([12]; read-out: TGI A549) was 0.184 µM. It also gave a GI50 ([13]; read-out: GI50 HT29) of 0.062 µM, a CC50 ([13]; read-out: LC50 HT29) of 1.64 µM and an IC (TGI) ([13]; read-out: TGI HT29) of 0.165 µM. It also gave a GI50 [14] of 0.0287 µM, a CC50 [14] of 0.0986 µM and an IC (TGI) [14] of 0.0532 µM.
Compound `COc1ccc2[nH]c3c(c2c1)CCN[C@]31CS[C@@H]2c3c(OC(C)=O)c(C)c4c(c3[C@H](COC1=O)N1C2[C@@H]2N[C@@H](Cc3cc(C)c(OC)c(O)c32)[C@@H]1C#N)OCO4` (stereo partly drawn) [compound 60] has a GI50 ([1]; read-out: DU145 GI50) of 0.0018 µM, a CC50 ([1]; read-out: DU145 LC50) of 7.13 µM and an IC (TGI) ([1]; read-out: DU145 TGI) of 1.36 µM. The GI50 [2] was 0.163 µM, the CC50 [2] was 12.8 µM and the IC (TGI) [2] was 0.757 µM. For the same compound, the GI50 ([3]; read-out: LNCAP GI50) was 0.000415 µM, the CC50 ([3]; read-out: LNCAP LC50) was 0.00503 µM and the IC (TGI) ([3]; read-out: LNCAP TGI) was 0.00142 µM. It also gave a GI50 [4] of 0.00331 µM, a CC50 [4] of 12.8 µM and an IC (TGI) [4] of 0.0119 µM. For the same compound, the GI50 [5] was 0.000809 µM, the CC50 [5] was 8.57 µM and the IC (TGI) [5] was 0.0132 µM. The GI50 [6] was 0.00103 µM, the CC50 [6] was 0.0128 µM and the IC (TGI) [6] was 0.00341 µM. The GI50 [7] was 0.00137 µM, the CC50 [7] was 0.00927 µM and the IC (TGI) [7] was 0.00358 µM. The GI50 [8] was 0.000431 µM, the CC50 [8] was 0.0422 µM and the IC (TGI) [8] was 0.00122 µM. The GI50 [9] was 0.00138 µM, the CC50 [9] was 0.0118 µM and the IC (TGI) [9] was 0.00403 µM. The GI50 [10] was 0.0209 µM, the CC50 [10] was 2.89 µM and the IC (TGI) [10] was 0.0531 µM. It also gave a GI50 ([11]; read-out: MEL-28 GI50) of 0.00191 µM, a CC50 ([11]; read-out: MEL-28 LC50) of 0.00955 µM and an IC (TGI) ([11]; read-out: MEL-28 TGI) of 0.00427 µM. It also gave a GI50 ([12]; read-out: A549 GI50) of 0.0036 µM, a CC50 ([12]; read-out: A549 LC50) of 0.076 µM and an IC (TGI) ([12]; read-out: A549 TGI) of 0.0131 µM. For the same compound, the GI50 ([13]; read-out: HT29 GI50) was 0.00228 µM, the CC50 ([13]; read-out: HT29 LC50) was 12.8 µM and the IC (TGI) ([13]; read-out: HT29 TGI) was 0.0131 µM. The GI50 [14] was 0.00327 µM, the CC50 [14] was 2.9 µM and the IC (TGI) [14] was 0.00823 µM.
With `C=CCN1[C@@H]2c3c(cc(C)c(OC)c3O)C[C@H]1[C@H](C#N)N1C2[C@@H]2SC[C@]3(NCCc4c3[nH]c3ccc(C)cc43)C(=O)OC[C@H]1c1c3c(c(C)c(OC(C)=O)c12)OCO3` (stereo partly drawn) [compound 58] the GI50 ([1]; read-out: DU145 GI50) was 0.0468 µM, the CC50 ([1]; read-out: DU145 LC50) was 12.4 µM and the IC (TGI) ([1]; read-out: DU145 TGI) was 0.0888 µM. It also gave a GI50 [2] of 0.483 µM, a CC50 [2] of 12.4 µM and an IC (TGI) [2] of 2.26 µM. The GI50 ([3]; read-out: LNCAP GI50) was 0.0299 µM, the CC50 ([3]; read-out: LNCAP LC50) was 0.24 µM and the IC (TGI) ([3]; read-out: LNCAP TGI) was 0.0716 µM. The GI50 [4] was 0.379 µM, the CC50 [4] was 12.4 µM and the IC (TGI) [4] was 1.27 µM. The GI50 [5] was 0.0264 µM, the CC50 [5] was 12.4 µM and the IC (TGI) [5] was 0.0942 µM. It also gave a GI50 [6] of 0.0394 µM, a CC50 [6] of 0.165 µM and an IC (TGI) [6] of 0.0708 µM. The GI50 [7] was 0.061 µM, the CC50 [7] was 1.16 µM and the IC (TGI) [7] was 0.19 µM. The GI50 [8] was 0.0209 µM, the CC50 [8] was 2.55 µM and the IC (TGI) [8] was 0.075 µM. It also gave a GI50 [9] of 0.0939 µM, a CC50 [9] of 1.04 µM and an IC (TGI) [9] of 0.305 µM. It also gave a GI50 [10] of 0.188 µM, a CC50 [10] of 0.949 µM and an IC (TGI) [10] of 0.422 µM. The GI50 ([11]; read-out: MEL-28 GI50) was 0.241 µM, the CC50 ([11]; read-out: MEL-28 LC50) was 0.969 µM and the IC (TGI) ([11]; read-out: MEL-28 TGI) was 0.469 µM. It also gave a GI50 ([12]; read-out: A549 GI50) of 0.216 µM, a CC50 ([12]; read-out: A549 LC50) of 1.24 µM and an IC (TGI) ([12]; read-out: A549 TGI) of 0.517 µM. For the same compound, the GI50 ([13]; read-out: HT29 GI50) was 0.297 µM, the CC50 ([13]; read-out: HT29 LC50) was 12.4 µM and the IC (TGI) ([13]; read-out: HT29 TGI) was 1.54 µM. The GI50 [14] was 0.139 µM, the CC50 [14] was 0.581 µM and the IC (TGI) [14] was 0.285 µM.
